Biological target: Glycogen synthase kinase-3 beta (Homo sapiens, UniProt P49841)
Assay: concentration-response blocking of human GSK3B – biochemical, luminescence, cell-free homogeneous, retest, dose response (AID 434954)

Chain of Glycogen synthase kinase-3 beta (P49841 whole entry): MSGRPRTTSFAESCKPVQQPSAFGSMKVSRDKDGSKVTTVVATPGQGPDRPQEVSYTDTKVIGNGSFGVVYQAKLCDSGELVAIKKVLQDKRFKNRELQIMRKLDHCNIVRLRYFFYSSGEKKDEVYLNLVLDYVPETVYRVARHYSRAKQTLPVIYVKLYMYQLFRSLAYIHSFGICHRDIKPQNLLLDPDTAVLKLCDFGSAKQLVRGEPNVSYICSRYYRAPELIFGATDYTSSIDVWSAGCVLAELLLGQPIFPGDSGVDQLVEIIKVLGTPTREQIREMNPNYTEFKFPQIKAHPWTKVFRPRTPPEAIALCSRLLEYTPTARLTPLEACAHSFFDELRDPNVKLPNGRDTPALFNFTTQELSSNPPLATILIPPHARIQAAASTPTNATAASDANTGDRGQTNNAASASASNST

EC50 [µM] | Structure (SMILES)
> 300 | CCOC(=O)c1sc(Nc2ccccc2)nc1C
> 300 | CN(C)S(=O)(=O)c1cc(NC(=O)CN2CCN(c3ccc(O)cc3)CC2)ccc1Cl [MLS000774170]
21.3 | Cc1ccnc(NC(=O)CCC(=O)N(CC(=O)NCCc2ccccc2)Cc2cccs2)c1 [N-(4-methylpyridin-2-yl)-N'-[2-oxidanylidene-2-(2-phenylethylamino)ethyl]-N'-(thiophen-2-ylmethyl)butanediamide]
56.4 | N#Cc1c2n(c3c(=O)[nH]cnc13)CCCC2
> 300 | CC1(C)CC(=O)C(C2(O)C(=O)Nc3ccccc32)CO1 (centres undefined) [MLS000689086]
> 300 | NNC(=O)CNC(=O)c1ccc(F)cc1
> 300 | COc1ccc(OC)c(Nc2c3ccccc3nc3ccccc23)c1 [N-(2,5-dimethoxyphenyl)-9-acridinamine]
> 300 | CCc1ccccc1NC(=O)CSc1nnc(-c2ccncc2)o1 [SMR000324383]
11.7 | CCOC(=O)c1nnn(-c2nonc2N)c1-c1cccs1 [1-(4-amino-1,2,5-oxadiazol-3-yl)-5-thiophen-2-yl-4-triazolecarboxylic acid ethyl ester]
39.3 | O=C(CCSCCc1ccccn1)Nc1ccc(Br)cn1 [N-(5-bromopyridin-2-yl)-3-(2-pyridin-2-ylethylsulfanyl)propanamide]
> 300 | CS(=O)(=O)c1ccc2nc(NC(=O)CN3CCN(Cc4ccccc4)CC3)sc2c1 [MLS000064538]
15.1 | O=C1Nc2cc(C(=O)NCCCN3CCOCC3)ccc2S/C1=C/c1cccc(Cl)c1 [(2E)-2-[(3-chlorophenyl)methylidene]-N-(3-morpholin-4-ylpropyl)-3-oxidanylidene-4H-1,4-benzothiazine-6-carboxamide]
68 | CN(CCO)c1cc(N2CCC3(CC2)OCCO3)c2nonc2c1[N+](=O)[O-] [MLS000584853]
> 300 | O=C1C(=O)N(c2ccccn2)C(c2ccc(Br)cc2)C1C(=O)c1ccc(Br)cc1 (centres undefined)
> 300 | CCOC(=O)c1c(C)[nH]c(C)c1S(=O)(=O)N(C)CC(=O)Nc1ccccc1 [SMR000630545]
> 300 | CC(=O)Nc1nnc(CSCc2ccc(F)cc2)s1 [N-[5-[(4-fluorophenyl)methylsulfanylmethyl]-1,3,4-thiadiazol-2-yl]acetamide]
36.6 | Cc1n[nH]c(O)c1N=Nc1ccc(S(N)(=O)=O)cc1 [4-[2-(3-methyl-5-oxopyrazol-4-yl)hydrazinyl]benzenesulfonamide]
> 300 | O=c1cccc2oc(-c3ccccc3Cl)cc(O)c1-2 [2-(2-chlorophenyl)-5-hydroxy-1-benzopyran-4-one]
31.7 | COc1ccc(-c2nnc3ccc(SCc4ccccc4)nn23)cc1 [3-(4-methoxyphenyl)-6-(phenylmethylsulfanyl)-[1,2,4]triazolo[4,3-b]pyridazine]
> 300 | COc1ccc(C2CC(=O)c3c(O)cc(O)cc3O2)c(CC=C(C)C)c1OC (centres undefined) [antiarone F]
> 300 | COC(=O)c1ccccc1OCCOc1ccccc1C(=O)OC
12.4 | CNc1nc(N)c([N+](=O)[O-])c(Nc2cccc(F)c2)n1 [SMR000436035]
> 300 | NS(=O)(=O)c1ccc(N/N=C2\C(=O)Nc3ccc(Br)cc32)cc1 [SMR000592222]

EC50 [µM] | Structure (SMILES)
16.9 | Cc1ccnc(NC(=O)CCC(=O)N(CC(=O)NCc2ccccc2)Cc2cccs2)c1
> 300 | COc1cccc(C2c3cc4c(cc3N=C3CC(C)(C)CC(=O)C32)OCO4)c1 (centres undefined) [MLS000522404]
26.2 | CC(=O)N1CCc2c(sc(NC(=O)CCS(=O)(=O)c3ccc(C)cc3)c2C(N)=O)C1 [6-ethanoyl-2-[3-(4-methylphenyl)sulfonylpropanoylamino]-5,7-dihydro-4H-thieno[2,3-c]pyridine-3-carboxamide]
> 300 | O=C1/C(=C/C=C/c2ccccc2)Oc2c1ccc(O)c2CN1CCN(CCO)CC1 [SMR000415785]
> 300 | COc1ccc2nc(C)cc(N3CCOCC3)c2c1 [4-(6-methoxy-2-methyl-4-quinolinyl)morpholine]
8.52 | CCCN(CCC)Cc1c(C(=O)NN=Cc2ccoc2)nnn1-c1nonc1N [1-(4-amino-1,2,5-oxadiazol-3-yl)-5-[(dipropylamino)methyl]-N-(3-furanylmethylideneamino)-4-triazolecarboxamide]
> 300 | CCN(CC)Cc1c(C(=O)OC(C)C)nnn1-c1nonc1N [propan-2-yl 1-(4-azanyl-1,2,5-oxadiazol-3-yl)-5-(diethylaminomethyl)-1,2,3-triazole-4-carboxylate]
> 300 | COc1ccc(-c2nn(-c3ccccc3)cc2C=O)cc1[N+](=O)[O-] [MLS001163277]
> 300 | COc1ccc(-c2nn(CCC#N)cc2CN=O)cc1OC [3-[3-(3,4-dimethoxyphenyl)-4-(hydroxyiminomethyl)pyrazol-1-yl]propanenitrile]
> 300 | CSc1nnnn1-c1c(C)cccc1C [MLS000861118]
> 300 | COC(=O)[C@@H]1Cc2c([nH]c3ccccc23)C2CCC(=O)N21 (stereo partly drawn) [methyl (5S)-3-oxidanylidene-1,2,5,6,11,11b-hexahydroindolizino[8,7-b]indole-5-carboxylate]
> 300 | CC(NCC1COc2ccccc2O1)C1COc2ccccc2O1 (centres undefined)
1.47 | Nc1nc(NCCCN2CCOCC2)nc(Nc2ccc(Cl)cc2)c1[N+](=O)[O-] [N'-(4-Chloro-phenyl)-N-(3-morpholin-4-yl-propyl)-5-nitro-pyrimidine-2,4,6-triamine]
> 300 | CCOC(=O)c1c(C)[nH]c(C)c1S(=O)(=O)NCC(=O)Nc1ccccn1 [ethyl 2,5-dimethyl-4-[[2-oxo-2-(pyridin-2-ylamino)ethyl]sulfamoyl]-1H-pyrrole-3-carboxylate]
> 300 | Cc1ccccc1-n1nnc2c(=O)oc3ccccc3c21 [1-(2-methylphenyl)chromeno[3,4-d]triazol-4-one]
> 300 | CC(=O)c1ccc(NC(=O)NNS(=O)(=O)c2ccc([N+](=O)[O-])cc2)cc1
> 300 | Cc1ccnc(NC(=O)c2ccc([N+](=O)[O-])o2)c1 [5-nitro-N-(4-methyl-2-pyridinyl)-2-furamide]
> 300 | Cc1ccc(S(=O)(=O)NC2=NC(=O)/C(=C/c3ccccc3)S2)cc1 [4-methyl-N-[(5Z)-4-oxo-5-(phenylmethylene)-2-thiazolyl]benzenesulfonamide]
> 300 | COc1ccccc1N1CCN(C(=O)Cn2nnc(-c3ccncc3)n2)CC1 [SMR000003468]
5.95 | COCCCNc1nc(N)c([N+](=O)[O-])c(NCc2ccccc2)n1
25.2 | O=C(CCS(=O)(=O)c1ccccc1)Nc1cccc2c1C(=O)NC2=O [3-(benzenesulfonyl)-N-(1,3-dioxoisoindol-4-yl)propanamide]
> 300 | c1ccc(CSc2ccc3nnc(-c4cccnc4)n3n2)cc1 [MLS000724858]
> 300 | O=C(NCC(c1ccco1)N1CCN(c2ccc(F)cc2)CC1)c1cccs1 (centres undefined) [SMR000808277]

EC50 [µM] | Structure (SMILES)
> 300 | COc1cccc(C(=O)Nc2nc(C)cs2)c1
> 300 | Cc1csc2c(=O)n(CCO)c(=O)[nH]c12 [MLS000861875]
> 300 | COc1ccccc1-c1coc2c(CN(C)C)c(O)ccc2c1=O [8-[(dimethylamino)methyl]-7-hydroxy-3-(2-methoxyphenyl)chromen-4-one]
50 | CN(Cc1nc2c(s1)CCCC2)C(=O)CCc1nnc(-c2ccc3c(c2)OCO3)o1 [SMR000318717]
21.6 | COc1ccc2occ(C(=O)c3ccc(N=C(C)N(C)C)cc3)c2c1 [SMR000104711]
> 300 | CC(C)Nc1nc(N=C(N)S)nc(NC(C)C)n1
21.4 | CC(Sc1ccc2nnc(-c3ccc(F)cc3)n2n1)C(=O)O (centres undefined) [2-[[3-(4-fluorophenyl)-[1,2,4]triazolo[4,3-b]pyridazin-6-yl]sulfanyl]propanoic acid]
> 300 | COCCn1c(SCC(=O)NCc2ccccc2)nc2ccccc21 [MLS001171409]
42.4 | O=C(Nc1ncnc2sc3c(c12)CCCC3)c1ccncc1 [N-(5,6,7,8-tetrahydro-[1]benzothiolo[2,3-d]pyrimidin-4-yl)-4-pyridinecarboxamide]
3.03 | CC(=O)c1sc(NC(=O)CCNC(=O)c2ccco2)nc1-c1ccccc1
51.2 | O=C(NC(=O)c1ccccc1)Nc1ccccn1 [N-(pyridin-2-ylcarbamoyl)benzamide]
> 300 | CCN1CCN(c2cc(C)c3cc(NC(=O)c4cc(OC)cc(OC)c4)ccc3n2)CC1 [N-[2-(4-ethylpiperazin-1-yl)-4-methylquinolin-6-yl]-3,5-dimethoxybenzamide]
> 300 | O=Cc1ccc(N2CCCC2)c([N+](=O)[O-])c1 [SMR000383989]
> 300 | C=CCN(c1ccc(C(=O)Nc2ccc(C)c(C)c2)cc1)S(C)(=O)=O [N-(3,4-dimethylphenyl)-4-[methylsulfonyl(prop-2-enyl)amino]benzamide]
14.1 | COc1ccc(-n2nc3c(N)n[nH]c3cc2=O)cc1 [SMR000337768]
> 300 | O=C(OCc1ccc(COC(=O)c2ccc(O)cc2)cc1)c1ccc(O)cc1 [SMR000588531]
> 300 | Cc1cc(OCCCn2ccnc2)ccc1[N+](=O)[O-] [SMR000497363]
> 300 | CCCOC(=O)c1ccc(O)cc1 [SMR000112070]
0.0779 | OCCCNc1nccc(-c2cc(Nc3cccc(Cl)c3)ncn2)n1 [3-[[4-[6-[(3-chlorophenyl)amino]pyrimidin-4-yl]pyrimidin-2-yl]amino]propan-1-ol]
> 300 | CCc1cc(C(=O)c2ccc(OC)cc2)c(NC(=O)CN2CCN(C)CC2)s1 [N-[5-ethyl-3-(4-methoxyphenyl)carbonyl-thiophen-2-yl]-2-(4-methylpiperazin-1-yl)ethanamide]
6.31 | Clc1ccc(CSc2nnc(-c3ccncc3)o2)c(Cl)c1 [2-[(2,4-dichlorobenzyl)thio]-5-(4-pyridyl)-1,3,4-oxadiazole]
> 300 | Cc1ccc2c(c1)Oc1ccc([N+](=O)[O-])cc1C(=O)N2 [7-methyl-2-nitrodibenzo[b,f][1,4]oxazepin-11(10H)-one]

Structure (SMILES) | EC50 [µM]
O=c1[nH]c2ccccc2c(=O)n1-c1ccc(Cl)cc1Cl [3-(2,4-dichlorophenyl)quinazoline-2,4(1H,3H)-dione] | > 300

— BindingDB's records for doi:10.7270/Q2TX3CTT (Broad Institute, 2010)
